Laboratory results as given in paper PMC8389037, “Design, Synthesis and Antifungal Activity of Stapled Aurein1.2 Peptides” (Antibiotics, 2021).

Assays:
[1] = Helicity by circular dichroism; format: physicochemical; details: CD, 50 μM peptide in phosphate buffer/trifluoroethanol (7:3), 20 °C, calculated on [θ]222
Experimental: We use circular dichroism (CD) spectroscopy to probe the structural changes of Aurein1.2. According to the formula for calculating the helix reported in the previous relevant literature, we calculated the helicities of Aurein1.2 and the stapled peptides.
Figure 3 CD spectra of Aurein1.2 and its analogues. The peptides were dissolved in a solution of phosphate buffer and trifluoroethanol (7:3) and reached a concentration of 50 μM. The helicities of these peptides were calculated on the [θ]222. TEXT PRINTED IN THE PICTURE: Aurein1.2: helicity: 56.6% | Sau-1: helicity: 60.2% | Sau-2: helicity: 52.5% | Sau-3: helicity: 72.3% | Sau-4: helicity: 73.5% | Sau-5: helicity: 61.0% | Sau-6: helicity: 49.9% | Sau-7: helicity: 65.0% | Sau-8: helicity: 83.1% | Sau-9: helicity: 67.8%
The linear peptide and the stapled Aurein1.2 peptides were dissolved to form a sample with a concentration of 50 μM. The solvent consists of phosphate-buffered solution and trifluoroethanol (7:3). We used a […] quartz tube to obtain CD spectra on a Jasco-715 spectrophotometer at 20 °C. The measurement parameters were set up as follows: wavelength, 190–255 nm; speed, 20 nm min^−1; step resolution, 1.0 nm. And we accumulated the data twice. All spectral data were subtracted from the background. […] The helicity of each peptide was calculated according to the equation in the literature.

[2] = system: chymotrypsin; test: Chymotrypsin digestion assay (proteolytic stability); details: chymotrypsin 10 ng/µL in PBS 50 mM, 2 mM CaCl2, pH 7.4, room temperature; 130 µL of 1 mM DMSO peptide stock + 910 µL enzyme; sampled 0, 0.5, 1.5, 2, 4.5 h; HPLC at 214 nm
Experimental: Their susceptibility toward chymotrypsin degradation was tested in pH 7.4 PBS buffer at room temperature, containing 2 mM of CaCl2, and the percentages of remaining peptides were determined by HPLC. […] The corresponding HPLC charts for the determination of peptide residues are in the Supplementary Material.
Figure 4 Proteolytic stability of Aurein1.2, Sau-1, Sau-2, Sau-5, and Sau-9. They were dissolved in chymotrypsin solution (10 ng/μL, 50 mM, containing 2 mM of CaCl2, pH = 7.4). The percentages of the remaining peptides were monitored by HPLC.
Aurein1.2, Sau-1, Sau-2, Sau-5, and Sau-9, were dissolved in dimethyl sulfoxide to prepare a reserve solution with a concentration of 1 mM. Chymotrypsin was dissolved in PBS buffer (50 mM, containing 2 mM of CaCl2, pH = 7.4) to obtain a final concentration of 10 ng/µL. Then the 130 µL peptide solutions were incubated with 910 µL of chymotrypsin solution at room temperature. Then 130 µL of digestion mixture was taken at 0, 0.5, 1.5, 2 or 4.5 h, and then quenched with 50 µL of hydrochloric acid (1 mM). High-performance liquid chromatography (HPLC) was used to detect the residues of linear peptides and stapled Aurein1.2 peptides at 214 nm at a different time.

[3] = system: C. albicans 904; test: microbe, parasite or virus in culture; details: C. albicans 904; RPMI 1640, 30 °C, 48 h, OD 630 nm, 80% inhibition
Experimental: (§1) The in vitro antifungal activities of the target peptides were evaluated according to protocols from the CLSI. The broth microdilution method was used to determine the minimum inhibitory concentration (MIC) of the target peptides in 96-well plates. Fluconazole was used as a reference drug.
(§2) Clinical isolates of C. albicans SC5314, 901, 904, C. tropicalis ATCC20026 and clinical isolate 895, C. glabrata ATCC1182 and clinical isolate 896, C. krusei ATCC2340, and C. parapsilosis ATCC22010 are from the collection library in the Drug Discovery and Development Center, Naval Medical University, Shanghai, China. C. auris clinical isolates are provided by Linqi Wang (Institute of Microbiology, Chinese Academy of Sciences) and Changbin Chen (Institut Pasteur of Shanghai, Chinese Academy of Sciences). All strains were cultured in YPD (1% yeast extract, 2% peptone, and 2% glucose) liquid medium overnight at 30 °C with shaking at 220 rpm.
(§3) The MICs of chemicals against all strains were determined by the micro broth dilution method according to the Clinical and Laboratory Standards Institute (Wayne PA, Reference Method for Broth Dilution Antifungal Susceptibility Testing of yeasts, approved Standard M27-A3, 3 rd ed; Clinical and Laboratory Standards Institute (CLSI): USA, 2008). The initial concentration of fungal suspension in RPMI 1640 medium was 3–5 × 10^3 colonies forming unit (CFU)/mL, which was added to 96-well plates. Peptides were prepared in dimethyl sulfoxide (DMSO) with an initial stored concentration of 6.4 mg/mL. Serial dilutions were made based on the CLSI M27 guide to obtaining the final concentrations ranging from 0.125 to 64 μg/mL for fluconazole and 0.25 to 128 μg/mL for peptides […]. The plates were incubated at 30 °C for 48 h. Optical density was measured at 630 nm, and background optical densities were subtracted from that of each well. The definition of MIC is the lowest concentration at which 80% of tested strains cannot grow.

[4] = system: C. krusei ATCC 2340; test: microbe, parasite or virus in culture; details: C. krusei ATCC 2340; RPMI 1640, 30 °C, 48 h, OD 630 nm, 80% inhibition
Experimental: as §1, §2, §3

[5] = system: C. tropicalis ATCC 20026; test: microbe, parasite or virus in culture; details: C. tropicalis ATCC 20026; RPMI 1640, 30 °C, 48 h, OD 630 nm, 80% inhibition
Experimental: as §1, §2, §3

[6] = system: C. tropicalis 895; test: microbe, parasite or virus in culture; details: C. tropicalis 895, fluconazole-resistant clinical isolate; RPMI 1640, 30 °C, 48 h, OD 630 nm, 80% inhibition
Experimental: as §1, §2, §3

[7] = system: C. auris 918; test: microbe, parasite or virus in culture; details: C. auris clinical isolate 918; RPMI 1640, 30 °C, 48 h, OD 630 nm, 80% inhibition
Experimental: as §1, §2, §3

[8] = system: C. albicans 901; test: microbe, parasite or virus in culture; details: C. albicans 901, fluconazole-resistant clinical isolate; RPMI 1640, 30 °C, 48 h, OD 630 nm, 80% inhibition
Experimental: as §1, §2, §3

[9] = system: C. auris 919; test: microbe, parasite or virus in culture; details: C. auris clinical isolate 919; RPMI 1640, 30 °C, 48 h, OD 630 nm, 80% inhibition
Experimental: as §1, §2, §3

[10] = system: C. glabrata ATCC 1182; test: microbe, parasite or virus in culture; details: C. glabrata ATCC 1182; RPMI 1640, 30 °C, 48 h, OD 630 nm, 80% inhibition
Experimental: as §1, §2, §3

[11] = system: C. glabrata 896; test: microbe, parasite or virus in culture; details: C. glabrata clinical isolate 896; RPMI 1640, 30 °C, 48 h, OD 630 nm, 80% inhibition
Experimental: as §1, §2, §3

[12] = system: C. parapsilosis ATCC 22010; test: microbe, parasite or virus in culture; details: C. parapsilosis ATCC 22010; RPMI 1640, 30 °C, 48 h, OD 630 nm, 80% inhibition
Experimental: as §1, §2, §3

[13] = system: C. albicans SC5314; test: microbe, parasite or virus in culture; details: C. albicans SC5314; RPMI 1640, 3–5 × 10^3 CFU/mL, 30 °C, 48 h, OD 630 nm, 80% inhibition
Experimental: as §1, §2, §3

With “Ac-GLFDIIKKIAESF-NH2 [reference compound]” as the substance, how does the helicity [1] read?
Its helicity is 56.6%.

And the “proteolytic stability, remaining peptide” value [2]?
The value was “disintegrated almost completely by 4.5 h”.

And the “Minimum inhibitory concentration (MIC)” value [3]?
The value was greater than 128 µg/mL.

And the “Minimum inhibitory concentration (MIC)” value [4]?
The value was greater than 128 µg/mL.

And the “Minimum inhibitory concentration (MIC)” value [5]?
Its value is greater than 128 µg/mL.

And the “Minimum inhibitory concentration (MIC)” value [6]?
Its value is greater than 128 µg/mL.

What about the “Minimum inhibitory concentration (MIC)” value [7] of the same substance?
The value was greater than 128 µg/mL.

What about the “Minimum inhibitory concentration (MIC)” value [8] of the same substance?
Its value is greater than 128 µg/mL.

What about the “Minimum inhibitory concentration (MIC)” value [9] of the same substance?
The value was greater than 128 µg/mL.

What about the “Minimum inhibitory concentration (MIC)” value [10] of the same substance?
The value was greater than 128 µg/mL.

And the “Minimum inhibitory concentration (MIC)” value [11]?
The value was greater than 128 µg/mL.

What about the “Minimum inhibitory concentration (MIC)” value [12] of the same substance?
The value was greater than 128 µg/mL.

What about the “Minimum inhibitory concentration (MIC)” value [13] of the same substance?
The value was greater than 64 µg/mL.
